Results: EP3366672B9, “BIPHENYL COMPOUND AND APPLICATION THEREOF” (Shenyang Sinochem Agrochemicals R & D Co., Ltd., priority 2015, dated 2017)

How the values were obtained:
Assay type in all cases: in vivo
[1] = system: deutonymph of spider mite (Tetranychuscinnabarinus); experiment: Greenhouse test against deutonymph of spider mite, spray on bean leaves; conditions: after 72 h
Description: Ten healthy female adult spider mites (Tetranychuscinnabarinus) were put into two true leaves of bean plants. The adult spider mites were removed after 24 h and the eggs were to be continued incubating. After ten days, the number of deutonymph were investigated and recorded. The solution of certain concentrations of test compounds was sprayed by using a sprinkler. Three replicates were set for each treatment. Then the deutonymph of spider mites were maintained in standard observation room. After 72 h, the survival mites in each leaf were observed, and mortality of the mites was determined.

[2] = system: citrus red mite (Panonychuscitri); experiment: Field trial against citrus red mite (Jiangxi, China)
Description: The trial was carried out in a 2-year-old Shatang orange orchard in Ganzhou city Jiangxi province, trifoliate orange trees were selected as stocks, the intervals between two plants was 1.50 × 2.50 m, the average height was 1.45 m and the crown width was 1.30 m. Two trees were selected in each plot, with random arrangement and 4 replications. Compound 1 (10% SC) was set at three different doses (100 mg/L, 50 mg/L and 25 mg/L), spirodiclofen (29% SC) was set at one dose (50 mg/L), and pyridaben (20% EC) was set at one dose (100 mg/L). MatabiSupergreen 16 Knapsack Sprayer 16 Liter was used to spray evenly with 2L of spraying volume for each plant. The plants were treated once in May at that time, adults, nymphs, eggs of citrus red mite all existed, with adults/eggs = 1/1.2. During the day the plants were treated, and the weather was good with the average temperature at 24°C. The first three days after treatment were all clear days. The number of mites was investigated before treatment and on the 1st, 3rd, 7th, 14th, 22nd and 28th day after treatment respectively. Two trees of each plot were investigated according to the five directions of the tree crown (east, south, west, north and central), 5 leaves in each direction were investigated to calculate the number of living mites, with 50 leaves each plot. The decline rate of mite population and corrected efficacy were calculated according to formulas below: The decline rate of mite population(%) = [(the average number of mite on each leaf; before treatment−the average number of mite on each leaf after treatment)/the; average number of mite on each leaf before treatment] × 100. [formula] Corrected efficacy(%) = [(the decline rate of mite population in treated area−the; decline rate of mite population in untreated area)/(100−the decline rate of mite; population in untreated area)] × 100. [formula]

[3] = system: egg of spider mite (Tetranychuscinnabarinus); experiment: Greenhouse test against egg of spider mite, spray on bean leaf; conditions: eggs, after 5 days
Description: Two true leaves of bean plants were taken and one true leaf was removed. Then ten healthy female adult spider mites were put into the true leaf. The adult spider mites were removed after 24 h and the eggs were investigated. The solution of certain concentrations of test compounds was sprayed by using a sprinkler. Three replicates were set for each treatment. The untreated eggs were all incubated after 5 days. The unincubation of treated eggs in leaf was observed, and incubation inhibition rate of the eggs was determined.

| Compound | Mortality (%) ([1]; 0.25mg/L) | Mortality (%) ([1]; 0.5mg/L) | Mortality (%) ([1]; 1mg/L) | Corrected efficacy (%) ([2]; 100 mg/L, The 1st day after treatment) | Corrected efficacy (%) ([2]; 100 mg/L, The 3rd day after treatment) | Corrected efficacy (%) ([2]; 100 mg/L, The 7th day after treatment) | Corrected efficacy (%) ([2]; 100 mg/L, The 14th day after treatment) | Corrected efficacy (%) ([2]; 100 mg/L, The 22nd day after treatment) | Corrected efficacy (%) ([2]; 100 mg/L, The 28th day after treatment) | Incubation inhibition rate (%) ([3]; 1mg/L) | Incubation inhibition rate (%) ([3]; 5mg/L) | Incubation inhibition rate (%) [3] [%] | Corrected efficacy (%) ([2]; 50 mg/L, The 1st day after treatment) | Corrected efficacy (%) ([2]; 50 mg/L, The 3rd day after treatment) | Corrected efficacy (%) ([2]; 50 mg/L, The 7th day after treatment) | Corrected efficacy (%) ([2]; 50 mg/L, The 14th day after treatment) | Corrected efficacy (%) ([2]; 50 mg/L, The 22nd day after treatment) | Corrected efficacy (%) ([2]; 50 mg/L, The 28th day after treatment) |
| --- | --- | --- | --- | --- | --- | --- | --- | --- | --- | --- | --- | --- | --- | --- | --- | --- | --- | --- |
| CC(C)(C)c1ccc(CSc2cnn(C(C)(C)C)c(=O)c2Cl)cc1 [pyridaben] | 25 | 60 | 84 | 0 | 65 | 90 | 93 | 92 | 95 |  |  |  |  |  |  |  |  |  |
| CCC(C)(C)C(=O)OC1=C(c2ccc(Cl)cc2Cl)C(=O)OC12CCCCC2 [spirodiclofen] |  |  |  |  |  |  |  |  |  | 37 | 100 | 13 | 20 | 48 | 63 | 80 | 71 | 70 |
